Biological target: PKM2 (Homo sapiens, UniProt P14618)
Assay: PKM2 Assay (activation; LDH-coupled, NADH absorbance at 340 nm)
Format: biochemical
Settings: PKM2 50 ng/well, ADP 0.7 mM, PEP 0.15 mM, no FBP in Reaction Mix
Protocol: • PKM2 stock enzyme solution was diluted in Reaction Buffer • 2 μL of compound was added into each well first, and then 180 μL of the Reaction Mix was added. • Reaction mixture with compound (without ADP) were incubated for 30 minutes at 4° C. • Plates were re-equilibrated to room temperature prior to adding 20 μL ADP to initiate the reaction. • Reaction progress was measured as changes in absorbance at 340 nm wavelength at room temperature (25° C.) Reaction Mix: PKM2 (50 ng/well), ADP (0.7 mM), PEP (0.15 mM), NADH (180 μM), LDH (2 units) in Reaction Buffer Reaction Buffer: 100 mM KCl, 50 mM Tris pH 7.5, 5 mM MgCl2, 1 mM DTT, 0.03% BSA.

Sequence of PKM2 (P14618 whole entry): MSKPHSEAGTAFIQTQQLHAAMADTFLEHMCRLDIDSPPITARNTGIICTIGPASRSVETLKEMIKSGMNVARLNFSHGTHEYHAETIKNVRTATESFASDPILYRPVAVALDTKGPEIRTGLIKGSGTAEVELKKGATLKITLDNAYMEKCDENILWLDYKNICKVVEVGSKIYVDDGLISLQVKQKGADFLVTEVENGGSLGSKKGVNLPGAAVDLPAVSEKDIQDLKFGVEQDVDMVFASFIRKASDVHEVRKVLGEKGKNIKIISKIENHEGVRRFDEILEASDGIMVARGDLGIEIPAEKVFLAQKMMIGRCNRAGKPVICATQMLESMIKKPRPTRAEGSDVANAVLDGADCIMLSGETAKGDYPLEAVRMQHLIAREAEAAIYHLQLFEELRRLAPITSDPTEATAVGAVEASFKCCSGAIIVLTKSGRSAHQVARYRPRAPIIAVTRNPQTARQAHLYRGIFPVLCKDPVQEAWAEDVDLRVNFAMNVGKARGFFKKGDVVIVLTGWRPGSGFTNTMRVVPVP

| Compound | AC50 [µM] |
| --- | --- |
| COc1ccc(Cl)cc1NS(=O)(=O)c1cc2c(cc1C)oc(=O)n2C | 1 to 10 |
| COCCn1c(=O)oc2cc(C)c(S(=O)(=O)Nc3ccc(F)c(C)c3)cc21 | 1 to 10 |
| O=c1[nH]c2cc(NS(=O)(=O)c3cccs3)c(Cl)cc2o1 | 1 to 10 |
| CCn1c(=O)oc2cc(Cl)c(S(=O)(=O)Nc3ccccc3Cl)cc21 | > 100 |
| COc1ccc(Cl)cc1S(=O)(=O)Nc1cc2c(cc1C)oc(=O)n2C [drawing 27] | > 100 |
| O=c1[nH]c2cc(NS(=O)(=O)c3cccc(Cl)c3)ccc2s1 | 10 to 50 |
| Cc1cc2sc(=O)sc2cc1S(=O)(=O)Nc1ccccc1 | < 1 |
| COc1ccc(C)cc1S(=O)(=O)Nc1cc2c(cc1Cl)oc(=O)n2C | 1 to 10 |
| COc1ccc(Cl)cc1S(=O)(=O)N1CCN(S(=O)(=O)c2ccc3c(c2)oc(=O)n3C)CC1 | 1 to 10 |
| Cc1cc(NS(=O)(=O)c2cc(CN3CCCCC3)c3c(c2)oc(=O)n3C)ccc1F | 1 to 10 |
| Cc1cc2c(cc1S(=O)(=O)N1CCN(C(=O)COc3ccc(-n4cnnn4)cc3)CC1)oc(=O)n2C | 10 to 50 |
| O=c1[nH]c2cc(NS(=O)(=O)c3ccccc3)ccc2s1 | 10 to 50 |
| Cc1cc2oc(=O)n(C)c2cc1S(=O)(=O)Nc1ccc(Cl)c(C(F)(F)F)c1 | 1 to 10 |
| Cc1cc2sc(=O)sc2cc1S(=O)(=O)Nc1ccc(Cl)cc1 | 1 to 10 |
| Cn1c(=O)oc2cc(S(=O)(=O)N3CCN(S(=O)(=O)c4ccc5c(c4)OCCO5)CC3)ccc21 | < 1 |
| Cc1cc(C)cc(NS(=O)(=O)c2cc3oc(=O)n(C)c3cc2F)c1 | < 1 |
| CCn1c(=O)oc2cc(S(=O)(=O)Nc3cc(Cl)ccc3OC)c(C)cc21 | 1 to 10 |
| Cc1cc2sc(=O)sc2cc1S(=O)(=O)Nc1ccccc1F | 10 to 50 |
| O=c1[nH]c2cc(NS(=O)(=O)c3cccc(Cl)c3)c(Cl)cc2o1 | 10 to 50 |
| Cc1cc2oc(=O)n(C)c2cc1NS(=O)(=O)c1cc(Cl)ccc1Cl | 10 to 50 |
| COCCn1c(=O)oc2cc(S(=O)(=O)Nc3ccc(F)c(Cl)c3)cc(C)c21 | < 1 |
| COCCn1c(=O)oc2cc(C)c(S(=O)(=O)Nc3ccc(F)c(Cl)c3)cc21 | 1 to 10 |
| O=c1sc2ccc(S(=O)(=O)Nc3ccc(Cl)cc3)cc2s1 | 1 to 10 |

| Compound | AC50 [µM] |
| --- | --- |
| COc1cccc(F)c1S(=O)(=O)N(C)c1ccc2sc(=O)n(C)c2c1 | 10 to 50 |
| Cc1cc2oc(=O)sc2cc1NS(=O)(=O)c1cccs1 | 10 to 50 |
| COc1ccc(Cl)cc1S(=O)(=O)Nc1ccc2c(c1)sc(=O)n2C | 10 to 50 |
| COc1ccc(Cl)cc1NS(=O)(=O)c1cc2sc(=O)sc2cc1C | 1 to 10 |
| Cc1cc2sc(=O)sc2cc1S(=O)(=O)Nc1ncc(C(F)(F)F)cc1Cl | 1 to 10 |
| O=c1[nH]c2cc(NS(=O)(=O)c3cccs3)ccc2s1 | 10 to 50 |
| COc1ccc(Cl)cc1S(=O)(=O)Nc1cc2c(cc1Cl)oc(=O)n2C | 1 to 10 |
| O=c1sc2ccc(S(=O)(=O)Nc3ccc(F)cc3)cc2s1 | 10 to 50 |
| CCn1c(=O)oc2cc(S(=O)(=O)Nc3ccccc3Cl)c(C)cc21 | 1 to 10 |
| COc1ccc(Cl)cc1S(=O)(=O)Nc1ccc(NS(=O)(=O)c2cc3c(cc2C)oc(=O)n3C)cc1 | > 100 |
| Cc1cc2c(cc1S(=O)(=O)N1CCN(C(=O)COc3ccccc3)CC1)oc(=O)n2C | > 100 |
| Cn1c(=O)sc2cc(S(=O)(=O)Nc3cccc4ncccc34)ccc21 | 1 to 10 |
| Cc1cc2c(cc1S(=O)(=O)N1CCN(Cc3ccccc3)CC1)oc(=O)n2C | 1 to 10 |
| CCn1c(=O)sc2ccc(NS(=O)(=O)c3c(F)cccc3F)cc21 | 1 to 10 |
| CCC(C)n1c(=O)sc2ccc(NS(=O)(=O)c3cc(Cl)ccc3OC)cc21 (stereo not shown) | 1 to 10 |
| COc1ccc(Cl)cc1S(=O)(=O)N1CCCN(S(=O)(=O)c2ccc3c(c2)sc(=O)n3C)CC1 | < 1 |
| Cc1cc(C)cc(NS(=O)(=O)c2cc3c(cc2F)oc(=O)n3C)c1 | < 1 |
| Cc1cc(NS(=O)(=O)c2cc(CN3CCOCC3)c3c(c2)oc(=O)n3C)ccc1F | 1 to 10 |
| Cc1cc2c(cc1S(=O)(=O)N1CCN(S(=O)(=O)c3c(F)cccc3F)CC1)oc(=O)n2C | 1 to 10 |
| CCn1c(=O)oc2cc(C)c(S(=O)(=O)Nc3cc(Cl)ccc3OC)cc21 | 10 to 50 |
| COc1cc(NS(=O)(=O)c2cc3c(cc2C)oc(=O)n3C)cc(OC)c1 | 1 to 10 |
| COc1ccc(S(=O)(=O)N2CCN(S(=O)(=O)c3ccc4c(c3)sc(=O)n4C)CC2)cc1 | < 1 |

Continued, values first:

| AC50 [µM] | Compound |
| --- | --- |
| > 100 | Cc1cc2oc(=O)n(C)c2cc1NS(=O)(=O)c1ccc(F)c(F)c1 |
| 1 to 10 | Cn1c(=O)oc2cc(S(=O)(=O)Nc3ccc4ncn(S(=O)(=O)c5cccc6c5oc(=O)n6C)c4c3)ccc21 |
| > 100 | Cn1c(=O)oc2cc(F)c(S(=O)(=O)Nc3c(F)cccc3F)cc21 |
| < 1 | Cn1c(=O)oc2cc(S(=O)(=O)Nc3ccc(F)c(F)c3)ccc21 |
| < 1 | Cc1cc2oc(=O)n(C)c2cc1S(=O)(=O)Nc1ccc2c(c1)OCO2 |
| < 1 | Cc1ccc(NS(=O)(=O)c2cc3c(cc2C)oc(=O)n3C)cc1C |
| > 100 | Cn1c(=O)oc2cc(S(=O)(=O)NC(C)(C)C)ccc21 |
| 1 to 10 | Cn1c(=O)oc2cc(S(=O)(=O)Nc3ccc(Cl)cc3)ccc21 |
| 1 to 10 | O=c1oc2cc(S(=O)(=O)Nc3ccc(F)cc3)ccc2n1CCc1ccccc1 |
| < 1 | COc1cc(NS(=O)(=O)c2ccc3c(c2)oc(=O)n3C)cc(OC)c1 |
| 10 to 50 | CCn1c(=O)oc2cc(Cl)c(S(=O)(=O)Nc3ccc(F)cc3)cc21 |
| 1 to 10 | Cn1c(=O)oc2cc(S(=O)(=O)Nc3ccccc3Cl)ccc21 |
| 10 to 50 | Cn1c(=O)sc2cc(NS(=O)(=O)c3ccc(F)cc3)ccc21 |
| < 1 | Cn1c(=O)oc2cc(S(=O)(=O)Nc3ccc(F)c(C(F)(F)F)c3)ccc21 |
| 10 to 50 | COc1cccc(S(=O)(=O)Nc2cc3c(cc2C)oc(=O)n3C)c1 |
| 1 to 10 | Cn1c(=O)oc2cc(F)c(S(=O)(=O)Nc3ccc(F)cc3)cc21 |
| 1 to 10 | Cc1cc2c(cc1S(=O)(=O)Nc1ccc(F)cc1)oc(=O)n2C |
| 10 to 50 | Cc1cc2oc(=O)n(C)c2cc1NS(=O)(=O)c1ccccc1Cl |
| 1 to 10 | Cn1c(=O)oc2cc(Cl)c(S(=O)(=O)Nc3ccccc3F)cc21 |
| < 1 | Cc1cc(NS(=O)(=O)c2ccc3c(c2)oc(=O)n3C)ccc1Cl |

| AC50 [µM] | Compound |
| --- | --- |
| < 1 | Cc1cc2oc(=O)n(C)c2cc1S(=O)(=O)Nc1ccc(Cl)cc1 |
| < 1 | Cn1c(=O)oc2cc(S(=O)(=O)Nc3cccc(Cl)c3)ccc21 |
| 10 to 50 | Cn1c(=O)oc2cc(S(=O)(=O)Nc3cccc4ncccc34)ccc21 |
| 1 to 10 | Cn1c(=O)oc2cc(S(=O)(=O)Nc3ccc4c(c3)OCCO4)ccc21 |
| < 1 | Cc1cc(C)cc(NS(=O)(=O)c2ccc3c(c2)sc(=O)n3C)c1 |
| < 1 | Cc1cc(C)cc(NS(=O)(=O)c2ccc3c(c2)oc(=O)n3C)c1 |
| 10 to 50 | Cn1c(=O)sc2ccc(NS(=O)(=O)c3ccccc3)cc21 |
| < 1 | Cn1c(=O)oc2cc(F)c(S(=O)(=O)Nc3ccccc3)cc21 [drawing 56] |
| < 1 | COCCn1c(=O)oc2cc(S(=O)(=O)Nc3ccc(F)c(C)c3)ccc21 |
| < 1 | Cc1cc(C)cc(NS(=O)(=O)c2ccc3oc(=O)n(C)c3c2)c1 |
| 1 to 10 | CN(Cc1ccccc1)S(=O)(=O)c1ccc2c(c1)oc(=O)n2C |
| < 1 | Cc1ccc(NS(=O)(=O)c2ccc3c(c2)oc(=O)n3C)cc1C |
| 10 to 50 | Cn1c(=O)oc2cc(Cl)c(NS(=O)(=O)c3cccc(Cl)c3)cc21 |
| 1 to 10 | Cc1cc2oc(=O)n(C)c2cc1S(=O)(=O)Nc1ccccc1Cl |
| 10 to 50 | CC(=O)c1ccc(S(=O)(=O)Nc2cc3c(cc2C)oc(=O)n3C)cc1 |
| 10 to 50 | COc1ccc(S(=O)(=O)Nc2cc3c(cc2Cl)oc(=O)n3C)cc1OC |
| < 1 | Cc1cc2oc(=O)n(C)c2cc1S(=O)(=O)Nc1ccc(F)cc1 |
| 1 to 10 | O=c1oc2cc(S(=O)(=O)Nc3ccc(F)cc3)ccc2n1Cc1ccccc1 |
| 1 to 10 | Cn1c(=O)oc2cc(S(=O)(=O)Nc3c(F)cccc3F)ccc21 |
| 1 to 10 | Cn1c(=O)oc2cc(S(=O)(=O)Nc3ccc(Cl)c(Cl)c3)ccc21 |

| AC50 [µM] | Compound |
| --- | --- |
| 1 to 10 | Cn1c(=O)oc2cc(S(=O)(=O)Nc3cc(F)cc(F)c3)ccc21 |
| 1 to 10 | Cc1cc2oc(=O)n(C)c2cc1S(=O)(=O)Nc1ccc(Cl)c(Cl)c1 |
| 1 to 10 | Cn1c(=O)oc2cc(S(=O)(=O)Nc3cccc(C(F)(F)F)c3)ccc21 |
| < 1 | COCCn1c(=O)oc2cc(S(=O)(=O)Nc3cccc(Cl)c3)ccc21 |
| < 1 | Cc1cc2oc(=O)n(C)c2cc1S(=O)(=O)Nc1cccc(Cl)c1 |
| 1 to 10 | Cn1c(=O)oc2cc(S(=O)(=O)Nc3ccc(F)cc3)ccc21 |
| 1 to 10 | Cn1c(=O)oc2cc(S(=O)(=O)Nc3ccc4ccccc4c3)ccc21 |
| 1 to 10 | Cn1c(=O)oc2cc(S(=O)(=O)Nc3ccc(Cl)c(F)c3)ccc21 |
| < 1 | Cn1c(=O)sc2cc(S(=O)(=O)Nc3cccc(Cl)c3)ccc21 |
| 1 to 10 | CCn1c(=O)oc2cc(Cl)c(S(=O)(=O)Nc3ccc(Cl)cc3)cc21 |
| 10 to 50 | Cn1c(=O)oc2cc(S(=O)(=O)Nc3ccccn3)ccc21 |
| 1 to 10 | Cn1c(=O)oc2cc(S(=O)(=O)Nc3ccc(OC(F)(F)F)c(Br)c3)ccc21 |
| < 1 | Cn1c(=O)oc2cc(S(=O)(=O)Nc3ccc4c(c3)OCO4)ccc21 |
| > 100 | CCn1c(=O)oc2ccc(NS(=O)(=O)c3cccs3)cc21 |
| < 1 | CCc1cccc(NS(=O)(=O)c2ccc3c(c2)oc(=O)n3C)c1 |
| 1 to 10 | Cn1c(=O)oc2cc(S(=O)(=O)Nc3ccc4ncccc4c3)ccc21 |
| 1 to 10 | Cn1c(=O)oc2cc(S(=O)(=O)NC3CCCCC3)ccc21 |
| 1 to 10 | Cc1cc(C)cc(NS(=O)(=O)c2ccc3c(c2)oc(=O)n3CCc2ccccc2)c1 |

Source: US8501953B2, “PKM2 modulators for use in the treatment of cancer” (Agios Pharmaceuticals, Inc, priority 2009, dated 2013)
